Source: article PMC5760531, “Action Potential Recording and Pro-arrhythmia Risk Analysis in Human Ventricular Trabeculae” (Frontiers in Physiology, 2018)

Experiments:
[1] = human free (unbound) effective therapeutic plasma concentration used to calculate multiples; cited from earlier work
[2] = tested on: human ventricular trabeculae; assay: Action potential recording and pro-arrhythmic score analysis in human ventricular trabeculae (hVT);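 also: sharp microelectrode action potential recordings at 37°C in Tyrode-perfused trabeculae, 4 cumulative concentrations each applied 31 min, values averaged over last 30 APs, vehicle 0.1% DMSO as control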
Description: Briefly, the human heart was transferred into a dissection vessel containing a cold (4°C), fresh proprietary dissection solution. The heart was maintained completely submerged in dissection solution. Ventricular trabeculae were dissected and transferred to the recording chamber.
Briefly, a single tissue was mounted into the experimental chamber filled with oxygenated Tyrode's external solution. The temperature of the solution was maintained at 37°C with flow rate at 5 mL per minute. The tissue was allowed to equilibrate for 30–60 min with stimulation (3 V, 3 ms) at a frequency of 1.0 Hz. High impedance borosilicate microelectrodes were prepared with a tip resistance of 10–20 MΩ once filled with 3 M KCl. Upon tissue impalement, the membrane potential was allowed to stabilize (typically, around −85 mV). Tissues with resting membrane potentials more positive than −75 mV were rejected. Bipolar stimulation at 1.5x threshold was applied and recordings were performed in continuous mode with sampling at 20 kHz using ADInstruments and LabChart Software.
Interruption of perfusion/oxygenation; (2). Absence of Aps following stimulation at baseline; (3). Time frame of drug exposure not respected; (4). Unstable response to stimulation at baseline; (5). Resting membrane potential (RMP) > −75 mV; 7). Maximal amplitude of AP (AMAX) <70 mV; 8). AP duration at 90% repolarization (APD90) <200 ms or >450 ms.
Experimental Procedure: Each test article was evaluated at 4 concentrations in 4 ventricular trabeculae derived from a minimum of 2 donor hearts. Testing concentrations were chosen based upon human free ETPC, aiming to cover 1–100-fold of human free ETPC. […] Briefly, following stabilization of each tissue, APs were collected and assessed for 31 min in vehicle control solution (Tyrode with 0.1% DMSO) at stimulation frequencies of 1 Hz for 25 min, 2 Hz for 3 min and then 1 Hz for 3 min. Following this vehicle control period, 4 concentrations of a test compound were applied sequentially and cumulatively. Each concentration was applied for 31 min with the same stimulation sequence as in vehicle controls.
For each frequency tested, the last 30 APs acquired at the end of the period were averaged for vehicle controls and for each test article concentration. Analysis at 1 Hz included only the last 30 APs of the initial 25-min incubation period. The following AP parameters and pro-arrhythmia variables were analyzed offline upon the completion of recordings:
• RMP (mV) • AMAX (mV) • AP duration at percent repolarization (APD20, APD30, APD50, APD60, APD90) (ms) • Short term variability analysis of AP duration (STV): Beat-to-beat variability of repolarization was quantified as STV from APD90 Poincare plots over a period of 30 sec.
Compound effects were quantified relative to the data collected during the vehicle control period (see Figure 1). […] Additionally, based on AnaBios historical data, threshold values for changes over baseline control for AP instability, APD alternans, Maximum APD dispersion and ERP (APD) were based upon an effect level of 10%. When applicable, differences were tested for statistical significance using the unpaired Student's t-test. A value of P < 0.05 was considered significant.
AP parameters and pro-arrhythmia variables were combined into a meaningful, single score to assess the pro-arrhythmic risk of a compound at each concentration tested. The pro-arrhythmic potential of compounds at 1 or 2 Hz was determined by assigning a weighted scale to each variable (Table 1).

[3] = 1Hz, 0.1-FOLD free ETPC (0.003µM)
[4] = 1Hz, 1-FOLD free ETPC (0.003µM)
[5] = 1Hz, 10-FOLD free ETPC (0.003µM)
[6] = 1Hz, 100-FOLD free ETPC (0.003µM)
[7] = 2Hz, 0.1-FOLD free ETPC (0.003µM)
[8] = 2Hz, 1-FOLD free ETPC (0.003µM)
[9] = 2Hz, 10-FOLD free ETPC (0.003µM)
[10] = 2Hz, 100-FOLD free ETPC (0.003µM)

## COc1cc(N)c(Cl)cc1C(=O)NC1CCN(CCCOc2ccc(F)cc2)CC1OC (stereo not shown) [CISAPRIDE, Cisapride]
[1]
  Free ETPC: 0.003 µM
[2]; [3]
  AMAX: 111
  AMAX percentage change compared to vehicle control: -2%
  APD30: 153
  APD30 percentage change compared to vehicle control: -14%
  APD50: 205
  APD50 percentage change compared to vehicle control: -13%
  APD90: 281
  APD90 percentage change compared to vehicle control: -10%
  Alternans: 0.75
  Alternans percentage change compared to vehicle control: 14%
  Beat Escape: 0
  Beat Escape percentage change compared to vehicle control: 0%
  EADs: 0
  EADs percentage change compared to vehicle control: 0%
  ERP: 0.45
  ERP percentage change compared to vehicle control: 3%
  Max Dispersion: 3.28
  Max Dispersion percentage change compared to vehicle control: 11%
  RMP: -94
  RMP percentage change compared to vehicle control: -1%
  Refractoriness Escape: 0
  Refractoriness Escape percentage change compared to vehicle control: 0%
  STV: 0.54
  STV percentage change compared to vehicle control: 22%
  Triangulation: 127
  Triangulation percentage change compared to vehicle control: -3%
[2]; [4]
  AMAX: 111
  AMAX percentage change compared to vehicle control: -2%
  APD30: 161
  APD30 percentage change compared to vehicle control: -11%
  APD50: 213
  APD50 percentage change compared to vehicle control: -10%
  APD90: 286
  APD90 percentage change compared to vehicle control: -9%
  Alternans: 0.76
  Alternans percentage change compared to vehicle control: 16%
  Beat Escape: 0
  Beat Escape percentage change compared to vehicle control: 0%
  EADs: 0
  EADs percentage change compared to vehicle control: 0%
  ERP: 0.44
  ERP percentage change compared to vehicle control: 1%
  Max Dispersion: 3.20
  Max Dispersion percentage change compared to vehicle control: 8%
  RMP: -96
  RMP percentage change compared to vehicle control: 0%
  Refractoriness Escape: 0
  Refractoriness Escape percentage change compared to vehicle control: 0%
  STV: 0.57
  STV percentage change compared to vehicle control: 42%
  Triangulation: 124
  Triangulation percentage change compared to vehicle control: -5%
[2]; [5]
  AMAX: 111
  AMAX percentage change compared to vehicle control: -1%
  APD30: 148
  APD30 percentage change compared to vehicle control: -17%
  APD50: 206
  APD50 percentage change compared to vehicle control: -13%
  APD90: 285
  APD90 percentage change compared to vehicle control: -8%
  Alternans: 0.37
  Alternans percentage change compared to vehicle control: -44%
  Beat Escape: 0
  Beat Escape percentage change compared to vehicle control: 0%
  EADs: 0
  EADs percentage change compared to vehicle control: 0%
  ERP: 0.48
  ERP percentage change compared to vehicle control: 11%
  Max Dispersion: 2.73
  Max Dispersion percentage change compared to vehicle control: -8%
  RMP: -99
  RMP percentage change compared to vehicle control: 4%
  Refractoriness Escape: 0
  Refractoriness Escape percentage change compared to vehicle control: 0%
  STV: 0.27
  STV percentage change compared to vehicle control: -31%
  Triangulation: 137
  Triangulation percentage change compared to vehicle control: 4%
[2]; [6]
  AMAX: 116
  AMAX percentage change compared to vehicle control: 3%
  APD30: 158
  APD30 percentage change compared to vehicle control: -12%
  APD50: 224
  APD50 percentage change compared to vehicle control: -6%
  APD90: 312
  APD90 percentage change compared to vehicle control: 0%
  Alternans: 0.54
  Alternans percentage change compared to vehicle control: -17%
  Beat Escape: 0
  Beat Escape percentage change compared to vehicle control: 0%
  EADs: 0
  EADs percentage change compared to vehicle control: 0%
  ERP: 0.49
  ERP percentage change compared to vehicle control: 14%
  Max Dispersion: 2.75
  Max Dispersion percentage change compared to vehicle control: -7%
  RMP: -102
  RMP percentage change compared to vehicle control: 7%
  Refractoriness Escape: 0
  Refractoriness Escape percentage change compared to vehicle control: 0%
  STV: 0.37
  STV percentage change compared to vehicle control: 3%
  Triangulation: 154
  Triangulation percentage change compared to vehicle control: 17%
[2]; [7]
  AMAX: 110
  AMAX percentage change compared to vehicle control: -2%
  APD30: 114
  APD30 percentage change compared to vehicle control: -10%
  APD50: 157
  APD50 percentage change compared to vehicle control: -8%
  APD90: 228
  APD90 percentage change compared to vehicle control: -6%
  Alternans: 0.98
  Alternans percentage change compared to vehicle control: 18%
  Beat Escape: 0
  Beat Escape percentage change compared to vehicle control: 0%
  EADs: 0
  EADs percentage change compared to vehicle control: 0%
  ERP: 0.47
  ERP percentage change compared to vehicle control: 1%
  Max Dispersion: 4.08
  Max Dispersion percentage change compared to vehicle control: 3%
  RMP: -94
  RMP percentage change compared to vehicle control: 0%
  Refractoriness Escape: 0
  Refractoriness Escape percentage change compared to vehicle control: 0%
  STV: 0.76
  Triangulation: 114
  Triangulation percentage change compared to vehicle control: -2%
[2]; [8]
  AMAX: 109
  AMAX percentage change compared to vehicle control: -3%
  APD30: 115
  APD30 percentage change compared to vehicle control: -10%
  APD50: 156
  APD50 percentage change compared to vehicle control: -10%
  APD90: 225
  APD90 percentage change compared to vehicle control: -8%
  Alternans: 0.99
  Alternans percentage change compared to vehicle control: 20%
  Beat Escape: 0
  Beat Escape percentage change compared to vehicle control: 0%
  EADs: 0
  EADs percentage change compared to vehicle control: 0%
  ERP: 0.46
  ERP percentage change compared to vehicle control: 1%
  Max Dispersion: 4.38
  Max Dispersion percentage change compared to vehicle control: 10%
  RMP: -94
  RMP percentage change compared to vehicle control: 0%
  Refractoriness Escape: 0
  Refractoriness Escape percentage change compared to vehicle control: 0%
  STV: 0.66
  Triangulation: 110
  Triangulation percentage change compared to vehicle control: -6%
[2]; [9]
  AMAX: 114
  AMAX percentage change compared to vehicle control: 1%
  APD30: 110
  APD30 percentage change compared to vehicle control: -13%
  APD50: 157
  APD50 percentage change compared to vehicle control: -9%
  APD90: 231
  APD90 percentage change compared to vehicle control: -5%
  Alternans: 0.63
  Alternans percentage change compared to vehicle control: -24%
  Beat Escape: 0
  Beat Escape percentage change compared to vehicle control: 0%
  EADs: 0
  EADs percentage change compared to vehicle control: 0%
  ERP: 0.50
  ERP percentage change compared to vehicle control: 10%
  Max Dispersion: 2.55
  Max Dispersion percentage change compared to vehicle control: -36%
  RMP: -100
  RMP percentage change compared to vehicle control: 6%
  Refractoriness Escape: 0
  Refractoriness Escape percentage change compared to vehicle control: 0%
  STV: 0.45
  Triangulation: 122
  Triangulation percentage change compared to vehicle control: 4%
[2]; [10]
  AMAX: 114
  AMAX percentage change compared to vehicle control: 2%
  APD30: 114
  APD30 percentage change compared to vehicle control: -10%
  APD50: 168
  APD50 percentage change compared to vehicle control: -3%
  APD90: 254
  APD90 percentage change compared to vehicle control: 4%
  Alternans: 0.75
  Alternans percentage change compared to vehicle control: -9%
  Beat Escape: 0
  Beat Escape percentage change compared to vehicle control: 0%
  EADs: 0
  EADs percentage change compared to vehicle control: 0%
  ERP: 0.52
  ERP percentage change compared to vehicle control: 13%
  Max Dispersion: 3.75
  Max Dispersion percentage change compared to vehicle control: -6%
  RMP: -101
  RMP percentage change compared to vehicle control: 7%
  Refractoriness Escape: 0
  Refractoriness Escape percentage change compared to vehicle control: 0%
  STV: 0.56
  Triangulation: 140
  Triangulation percentage change compared to vehicle control: 20%
